Results: patent US20250042866A1, “CRYSTAL FORM OF BLARCAMESINE HYDROCHLORIDE, METHOD FOR PREPARING SAME, AND USE THEROF” (CRYSTAL PHARMACEUTICAL (SUZHOU) CO., LTD., priority 2022, published 2025)
“Also recorded” adds a separate entry of the source.

Experiments:
Assay type in all cases: physicochemical
[1] = Solubility in organic solvents, step-wise solvent addition; settings: organic solvent or mixture, thermodynamic from solid; Ethyl acetate; room temperature; as mass of Compound I
Method: (§1) The weight of solid (m), the undissolved volume (v1) and the dissolved volume (v2) were recorded respectively.
as §1

[2] = Flowability (compressibility index / Carr index); settings: criteria of ICH Q4B Annex 13, by compressibility index
Method: The bulk density ρ0 was calculated with the formula “bulk density ρ0=powder mass/volume before tapped”. […] The tapped density pf was calculated with the formula “tapped density ρf=powder mass/volume after tapped”. The degree of compression (c), also known as Compressibility index or Carr index, was calculated based on the measured bulk density and tap density of the sample with the formula c=(ρf-ρ0)/ρf*100%.
The bulk density ρ0 was calculated with the formula “bulk density ρ0=powder mass/volume before tapped”. […] The tapped density pf was calculated with the formula “tapped density ρf=powder mass/volume after tapped”. The degree of compression (c), also known as Compressibility index or Carr index, was calculated based on the measured bulk density and tap density of the sample with the formula c=(pf-ρ0)/ρf*100%.

[3] = Compressibility: tensile strength of compressed tablets; settings: 80 mg, Φ6 mm round tooling, 3 kN, after 24 hours at room temperature; T=2H/πDL
Method: The samples were pressed by the ENERPAC single punch manual tablet press. […] The elastic recovery was completed after storage at room temperature for 24 hours, then the diameter (D) and thickness (L) of the tablet was measured by a caliper, and the hardness (H) was tested with a tablet hardness tester. Tensile strength of the powder was calculated with the following formula: T=2H/πDL. Under a certain force, the greater the tensile strength, the better the compressibility.

[4] = Hygroscopicity by dynamic vapor sorption (DVS); settings: 25° C., cycle 0% RH-95% RH-0% RH, about 10 mg
Method: DVS data in the present disclosure were measured via an SMS (Surface Measurement Systems Ltd.) intrinsic DVS instrument. The instrument control software is DVS-Intrinsic control software. Typical Parameters for DVS test are as follows: • Temperature: 25° C. • Gas and flow rate: N2, 200 mL/min • RH range: 0% RH to 95% RH
The mass change at each relative humidity were recorded in a cycle of 0% RH-95% RH-0% RH.

[5] = Crystalline form stability in the formulation process; settings: dry granulation simulation 5 ± 1 kN, blending, capsule filling; XRPD
[6] = Light stability (HPLC purity and XRPD form); settings: for Initial purity: before light exposure; for Purity / Solid form: light 8 k Lux, UV 1.5 w/m^2, 2 weeks; for Purity: HPLC; for Solid form: XRPD
From the text: An appropriate amount of Form CSIV of the present disclosure was placed in a light stability chamber with the following setting values: light: 8 k Lux, UV: 1.5 w/m^2.

[7] = Stability upon mechanical force: tableting under different pressures; settings: XRPD
Method: An appropriate amount of Form CSII was compressed into tablets under different pressures with suitable tableting die. Crystalline form before and after tableting were tested by XRPD.
An appropriate amount of Form CSIII was compressed into tablets under different pressures with suitable tableting die. Crystalline form before and after tableting were tested by XRPD.

[8] = Storage stability of drug substance (HPLC purity and XRPD form); settings: for chemical purity during storage: 40° C./75% RH and 60° C./75% RH
Method: Chemical purity and crystalline form were tested by HPLC and XRPD respectively.
Open: the sample was placed into a glass vial, and the vial was covered by aluminum foil with holes.
Sealed with desiccants: the sample was placed into a glass vial, and the vial was covered by aluminum foil with holes, then the vial was sealed into an aluminum foil bag with 1 g of silica gel desiccant.
An appropriate amount of Form CSIV of the present disclosure were stored under different conditions of 25° C./60% RH, 40° C./75% RH and 60° C./75% RH. Chemical purity and crystalline form were test by HPLC and XRPD respectively. […] Form CSIV is stable after storage under 40° C./75% RH condition for at least 6 months, indicating Form CSIV has good stability under accelerated condition. Form CSIV is stable after storage under 60° C./75% RH condition for at least 2 weeks, indicating Form CSIV has good stability under stress condition.

[9] = Stability upon mechanical force: ball milling; settings: XRPD
[10] = 25° C./60% RH, long-term condition
[11] = 25° C./60% RH, sealed with desiccants, 9 months
[12] = 40° C./75% RH, accelerated condition
[13] = 60° C./75% RH, stress condition
[14] = 40° C./75% RH, sealed with desiccants, 6 months
[15] = 5 minutes at a vibration speed of 500 rpm
[16] = 25° C./60% RH, sealed with desiccants, 6 months
[17] = 60° C./75% RH, sealed with desiccants, 2 weeks

Compound | Flowability [2] | Tensile strength [3] [MPa] | Mass increase under 70% RH [4] [%] | crystalline form before and after the formulation process [5] | Initial purity [6] [%] | Purity [6] [%] | Solid form [6] | Crystalline form after tableting ([7]; Pressure 5 kN) | Crystalline form after tableting ([7]; Pressure 10 kN) | Crystalline form after tableting ([7]; Pressure 20 kN) | time for which the drug substance is stable (crystalline state unchanged) [8, 10] | Purity ([8]; 25° C./60% RH, open, 9 months) [%] | Purity [8, 11] [%] | chemical purity during storage [8] | time for which the drug substance is stable (crystalline state unchanged) [8, 12] | time for which the drug substance is stable (crystalline state unchanged) [8, 13] | Purity ([8]; Initial) [%] | Purity [8, 14] [%] | form change after ball milling [9, 15] | other results
CN(C)CC1CCOC1(c1ccccc1)c1ccccc1 (centres unmarked) [Form I in the prior art, tetrahydro-N,N-dimethyl-2,2-diphenyl-3-furanmethanamine, reference compound] | Poor | 0.552 | 0.54 |  |  |  |  |  |  |  |  |  |  |  |  |  |  |  |  | solubility [1]: < 1500 µg/mL
CN(C)CC1CCOC1(c1ccccc1)c1ccccc1.Cl.O=C(O)CC(O)(CC(=O)O)C(=O)O (centres unmarked) [Form CSIII] | Fair (16-20) | 0.707 |  | stable before and after the formulation process | 99.83 | 99.76 | remains unchanged; also recorded: Form CSIII | Form CSIII | Form CSIII | Form CSIII | at least 9 months | 99.91 | 99.92 | above 99% | at least 3 months | at least 2 month | 99.86 |  |  | Purity ([8]; 40° C./75% RH, sealed with desiccants, 3 months): 99.91%; Purity ([8]; 60° C./75% RH, sealed with desiccants, 2 months): 99.86%; form change after ball milling ([9]; vibration speed of 300 rpm): no form change
CN(C)CC1CCOC1(c1ccccc1)c1ccccc1.CN(C)CC1CCOC1(c1ccccc1)c1ccccc1.Cl.Cl.O=C(O)C(O)C(O)C(=O)O (centres unmarked) [Form CSII] |  | 0.705 | 0.24 | stable before and after the formulation process | 99.97 | 99.97 | remains unchanged; also recorded: Form CSII | Form CSII | Form CSII | Form CSII | at least 9 months | 99.90 | 99.95 | above 99.9% | at least 6 months |  | 99.96 | 99.90 | no form change | Purity ([8]; 60° C./75% RH, sealed with desiccants, 1 month): 99.94%
CN(C)CC1CCOC1(c1ccccc1)c1ccccc1.CN(C)CC1CCOC1(c1ccccc1)c1ccccc1.Cl.Cl.O=C(O)CC(O)C(=O)O (racemic) [Form CSIV] | Excellent (≤10) | 0.705 |  |  | 99.92 | 99.92 | remains unchanged; also recorded: Form CSIV |  |  |  | at least 6 months |  |  | above 99.9% | at least 6 months | at least 2 weeks | 99.95 | 99.93 | no form change | Purity [8, 16]: 99.92%; Solid form [8, 16]: Form CSIV; Solid form [8, 14]: Form CSIV; Purity [8, 17]: 99.98%; Solid form [8, 17]: Form CSIV; Solid form ([8]; Initial): Form CSIV
